Test results from patent publication US10034844B2, “Method for enhancing immunity, inhibiting allergic reaction, and/or inhibiting autoimmune reaction” (TCI CO., LTD., priority 2016, dated 2018).

Experiments:
[1] = system: HLA-DPA1; test: RNA microarray, HLA-DPA1 expression in PBMCs (MHC-II pathway); assay type: cell-based, human; settings: final concentration of 5%, 24 hours, normalized to control group
Protocol: (§1) PBMCs are immunocytes present in the peripheral blood. In these preparation examples, PBMCs were isolated from the peripheral blood obtained from healthy donors.
(§2) B. Treatments Applied to PBMCs • (b1) 1 mL X-VIVO 10 medium was added into each well of a 24-well plate, and then PBMCs obtained from step A were seeded into the medium with a density of 1×10^6 to 2×10^6/well; and • (b2) PBMCs obtained from step b1 were separated into two groups for the following treatments: • Control group: the PBMCs-containing medium was directly incubated in a 37° C. constant temperature incubator with 5% CO2 (i.e., PBMCs were cultured in a medium that was free of the compound of formula (I)) for 24 hours; • Experimental group: the compound of formula (I) was added to the PBMCs-containing medium until a final concentration of 5%, and then the medium was incubated in a 37° C. constant temperature incubator with 5% CO2 for 24 hours. […]
(§3) To know whether the compound of formula (I) can inhibit the activation of the MHC-II pathway, after determining mRNA expression levels via the above Preparation example C, the expression levels of genes relating to MHC-II pathway (including CD4, CD74, CIITA, HLA-DMB, HLA-DPA1, HLA-DPB1, HLA-DQB1, HLA-DRA, and LGMN) of the control and experimental group were recorded respectively. […]

[2] = system: SOD2 (Superoxide dismutase 2); test: RNA microarray, SOD2 expression in PBMCs (genes delaying aging of immunocytes); assay type: cell-based, human; settings: final concentration of 5%, 24 hours, normalized to control group
Protocol: as §1, §2
(§4) To know whether the compound of formula (I) can delay the aging of immunocytes, after determining mRNA expression levels via the above Preparation example C, the expression levels of genes helpful for delaying the aging of immunocytes (including FOXO3, SOD2, and TNFRSF14) of the control and experimental group were recorded respectively. […]

[3] = system: CD74 (Cluster of Differentiation 74); test: RNA microarray, CD74 expression in PBMCs (MHC-II pathway); assay type: cell-based, human; settings: final concentration of 5%, 24 hours, normalized to control group
Protocol: as §1, §2, §3

[4] = system: HSPA1B (heat shock protein family A member 1B); test: RNA microarray, HSPA1B expression in PBMCs (MHC-I pathway); assay type: cell-based, human; settings: final concentration of 5%, 24 hours, compared to control group
Protocol: as §1, §2
(§5) To know whether the compound of formula (I) can promote the activation of the MHC-I pathway, after determining mRNA expression levels via the above Preparation example C, the expression levels of genes relating to MHC-I pathway (including CTSL, HSPA1B, and HSPA2) of the control and experimental group were recorded respectively. […]

[5] = system: HLA-DQB1; test: RNA microarray, HLA-DQB1 expression in PBMCs (MHC-II pathway); assay type: cell-based, human; settings: final concentration of 5%, 24 hours, normalized to control group
Protocol: as §1, §2, §3

[6] = system: HSPA2 (Heat Shock Protein Family A Member 2); test: RNA microarray, HSPA2 expression in PBMCs (MHC-I pathway); assay type: cell-based, human; settings: final concentration of 5%, 24 hours, normalized to control group
Protocol: as §1, §2, §5

[7] = system: FOXO3 (forkhead box O3); test: RNA microarray, FOXO3 expression in PBMCs (genes delaying aging of immunocytes); assay type: cell-based, human; settings: final concentration of 5%, 24 hours, compared to control group
Protocol: as §1, §2, §4

[8] = system: HLA-DPB1; test: RNA microarray, HLA-DPB1 expression in PBMCs (MHC-II pathway); assay type: cell-based, human; settings: final concentration of 5%, 24 hours, normalized to control group
Protocol: as §1, §2, §3

[9] = system: TNFRSF14 (TNF superfamily, member 14); test: RNA microarray, TNFRSF14 expression in PBMCs (genes delaying aging of immunocytes); assay type: cell-based, human; settings: final concentration of 5%, 24 hours, compared to control group
Protocol: as §1, §2, §4

[10] = system: CD4 (Cluster of Differentiation 4); test: RNA microarray, CD4 expression in PBMCs (MHC-II pathway); assay type: cell-based, human; settings: final concentration of 5%, 24 hours, normalized to control group
Protocol: as §1, §2, §3

[11] = system: TNF-α (tumor necrosis factor alpha); test: RNA microarray, TNF-α expression in PBMCs (macrophage activation); assay type: cell-based, human; settings: final concentration of 5%, 24 hours, compared to control group
Protocol: as §1, §2
(§6) To know whether the compound of formula (I) can promote the activation of macrophages, after determining mRNA expression levels via the above Preparation example C, the expression levels of genes relating to macrophage activation (including IL-1B and TNF-α) of the control and experimental group were recorded respectively. […]

[12] = system: HLA-DMB (human leukocyte antigen-DMB); test: RNA microarray, HLA-DMB expression in PBMCs (MHC-II pathway); assay type: cell-based; settings: final concentration of 5%, 24 hours, normalized to control group
Protocol: as §1, §2, §3

[13] = system: CD244 (Cluster of Differentiation 244); test: RNA microarray, CD244 expression in PBMCs (aging genes); assay type: cell-based, human; settings: final concentration of 5%, 24 hours, normalized to control group
Protocol: as §1, §2
(§7) To know whether the compound of formula (I) can delay the aging of immunocytes, after determining mRNA expression levels via the above Preparation example C, the expression levels of genes representing the old stage of immunocytes (including CD244, ITGA4, and KLRG1) of the control and experimental group were recorded respectively. […]

[14] = system: ITGA4 (integrin subunit alpha 4); test: RNA microarray, ITGA4 expression in PBMCs (aging genes); assay type: cell-based, human; settings: final concentration of 5%, 24 hours, normalized to control group
Protocol: as §1, §2, §7

[15] = system: CTSL (Cathepsin L); test: RNA microarray, CTSL expression in PBMCs (MHC-I pathway); assay type: cell-based, human; settings: final concentration of 5%, 24 hours, normalized to control group
Protocol: as §1, §2, §5

[16] = system: LGMN (legumain); test: RNA microarray, LGMN expression in PBMCs (MHC-II pathway); assay type: cell-based, human; settings: final concentration of 5%, 24 hours, normalized to control group
Protocol: as §1, §2, §3

[17] = system: CIITA (Class II Major Histocompatibility Complex Transactivator); test: RNA microarray, CIITA expression in PBMCs (MHC-II pathway); assay type: cell-based, human; settings: final concentration of 5%, 24 hours, normalized to control group
Protocol: as §1, §2, §3

[18] = system: HLA-DRA; test: RNA microarray, HLA-DRA expression in PBMCs (MHC-II pathway); assay type: cell-based, human; settings: final concentration of 5%, 24 hours, normalized to control group
Protocol: as §1, §2, §3

[19] = system: IL-1B (interleukin 1 beta); test: RNA microarray, IL-1B expression in PBMCs (macrophage activation); assay type: cell-based, human; settings: final concentration of 5%, 24 hours, normalized to control group
Protocol: as §1, §2, §6

[20] = system: KLRG1 (killer cell lectin-like receptor subfamily G, member 1); test: RNA microarray, KLRG1 expression in PBMCs (aging genes); assay type: cell-based, human; settings: final concentration of 5%, 24 hours, normalized to control group
Protocol: as §1, §2, §7

SMILES: C=C1CC[C@@H](C)C2C[C@@H](O)[C@@H](C(C)C(=O)O)CC12 (some centres unmarked) [compound of formula (I)]
- expression level of HLA-DPA1 [1]: 0.23 times the level of the control group
- expression level of SOD2 [2]: 6.06 times the level of the control group
- expression level of CD74 [3]: 0.18 times the level of the control group
- expression level of HSPA1B [4]: significantly increased
- expression level of HLA-DQB1 [5]: 0.14 times the level of the control group
- expression level of HSPA2 [6]: 4.61 times the level of the control group
- expression level of FOXO3 [7]: significantly increased
- expression level of HLA-DPB1 [8]: 0.23 times the level of the control group
- expression level of TNFRSF14 [9]: significantly increased
- expression level of CD4 [10]: 0.47 times the level of the control group
- expression level of TNF-α [11]: significantly increased
- expression level of HLA-DMB [12]: 0.31 times the level of the control group
- expression level of CD244 [13]: 0.14 times the level of the control group
- expression level of ITGA4 [14]: 0.24 times the level of the control group
- expression level of CTSL [15]: 3.13 times the level of the control group
- expression level of LGMN [16]: 0.32 times the level of the control group
- expression level of CIITA [17]: 0.40 times the level of the control group
- expression level of HLA-DRA [18]: 0.36 times the level of the control group
- expression level of IL-1B [19]: 16.32 times the level of the control group
- expression level of KLRG1 [20]: 0.25 times the level of the control group
